Test results: US11673889B2, “Substituted imidazo[4,5-c][1,8]naphthyridines as phosphodiesterase inhibitors” (Nanjing Zhengxiang Pharmaceuticals Co., Ltd., priority 2019, dated 2023)

What was measured:
[1] = target: T1, human soluble ENPP1 (Homo sapiens, UniProt P22413); assay: ENPP1 activity assay using p-Nitrophenyl-5′-TMP as a substrate; type: biochemical
T1 construct: 20 ng of human soluble ENPP1
T1 sequence (P22413 103-925 limits assumed): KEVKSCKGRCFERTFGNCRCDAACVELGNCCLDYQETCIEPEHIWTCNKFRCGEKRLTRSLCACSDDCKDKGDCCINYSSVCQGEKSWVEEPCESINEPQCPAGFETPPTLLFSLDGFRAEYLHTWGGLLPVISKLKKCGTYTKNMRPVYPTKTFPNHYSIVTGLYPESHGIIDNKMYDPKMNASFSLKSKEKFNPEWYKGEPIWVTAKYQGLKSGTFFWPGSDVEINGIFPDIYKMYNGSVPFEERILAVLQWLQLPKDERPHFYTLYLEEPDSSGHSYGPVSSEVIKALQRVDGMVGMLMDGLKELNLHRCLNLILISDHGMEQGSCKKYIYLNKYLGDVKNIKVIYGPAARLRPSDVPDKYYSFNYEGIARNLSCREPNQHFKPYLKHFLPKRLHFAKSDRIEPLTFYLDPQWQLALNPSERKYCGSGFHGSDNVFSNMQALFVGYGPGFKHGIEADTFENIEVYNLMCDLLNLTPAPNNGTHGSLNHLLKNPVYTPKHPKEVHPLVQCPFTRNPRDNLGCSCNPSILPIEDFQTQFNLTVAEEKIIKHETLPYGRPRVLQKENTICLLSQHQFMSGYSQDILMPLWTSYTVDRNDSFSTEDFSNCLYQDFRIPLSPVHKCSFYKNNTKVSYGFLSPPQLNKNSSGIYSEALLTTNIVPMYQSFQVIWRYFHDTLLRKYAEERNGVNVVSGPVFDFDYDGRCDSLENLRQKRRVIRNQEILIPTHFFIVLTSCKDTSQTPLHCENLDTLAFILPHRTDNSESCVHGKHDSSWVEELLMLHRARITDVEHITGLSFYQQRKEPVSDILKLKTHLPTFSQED
How it was run: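 Percent inhibition, set against uninhibited-enzyme and blank wells, was fitted to a four-parameter variable-slope model for IC50. Chromogenic read-out was p-nitrophenol released from TMP-pNP, added as a 2 mM […] solution for 1 h at RT. Before that, 20 ng soluble ENPP1 sat 30 min with compound.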

[2] = target: T2, ENPP-1, MDA-MB-231 cells (Homo sapiens, UniProt P22413); assay: cell-based; conditions: for inhibition at 20 µM: MDA-MB-231, read-out: % Inhibition (at 20 μM)
T2 sequence (P22413 1-925): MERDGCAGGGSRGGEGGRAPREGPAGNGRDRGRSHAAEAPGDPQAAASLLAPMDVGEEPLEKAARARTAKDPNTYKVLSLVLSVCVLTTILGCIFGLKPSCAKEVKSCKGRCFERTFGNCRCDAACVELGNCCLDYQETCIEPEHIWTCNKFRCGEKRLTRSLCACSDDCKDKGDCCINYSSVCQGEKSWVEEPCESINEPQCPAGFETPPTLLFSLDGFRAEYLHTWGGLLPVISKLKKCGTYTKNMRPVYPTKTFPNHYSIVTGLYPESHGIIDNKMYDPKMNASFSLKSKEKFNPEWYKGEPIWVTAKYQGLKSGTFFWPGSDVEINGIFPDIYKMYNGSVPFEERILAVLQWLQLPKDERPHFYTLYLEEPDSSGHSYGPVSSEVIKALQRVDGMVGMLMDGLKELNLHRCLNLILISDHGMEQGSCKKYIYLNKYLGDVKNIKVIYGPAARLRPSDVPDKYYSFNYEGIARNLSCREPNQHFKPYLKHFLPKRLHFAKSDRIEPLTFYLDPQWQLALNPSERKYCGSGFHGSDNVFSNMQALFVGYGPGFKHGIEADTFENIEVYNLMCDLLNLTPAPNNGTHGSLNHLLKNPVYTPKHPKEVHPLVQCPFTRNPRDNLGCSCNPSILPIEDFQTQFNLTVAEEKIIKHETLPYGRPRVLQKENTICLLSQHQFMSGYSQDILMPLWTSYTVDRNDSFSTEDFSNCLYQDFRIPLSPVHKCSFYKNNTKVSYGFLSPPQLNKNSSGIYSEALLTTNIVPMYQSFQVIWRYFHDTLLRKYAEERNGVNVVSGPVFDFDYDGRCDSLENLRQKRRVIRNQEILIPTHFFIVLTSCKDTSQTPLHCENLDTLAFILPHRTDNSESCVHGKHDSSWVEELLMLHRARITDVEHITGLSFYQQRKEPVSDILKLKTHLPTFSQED

[3] = target: T1, human soluble ENPP1; assay: ENPP1 activity assay using p-Nitrophenyl-5′-AMP as a substrate; type: biochemical
How it was run: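 Absorbance at 405 nm tracks p-nitrophenol from AMP-pNP hydrolysis after 1 h at room temperature, substrate added as 3 mM (2× final) following 30 min enzyme–compound preincubation. Enzyme: 35 ng human soluble ENPP1. IC50 fitted (variable-slope four-parameter) from percent inhibition normalized to max and blank.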

| SMILES | IC50 [1] [nM] | IC50 [2] [nM] | inhibition at 20 µM [2] [%] | IC50 [3] [nM] |
| --- | --- | --- | --- | --- |
| COc1cc2ncc3ncn(Cc4ccc(S(N)(=O)=O)cn4)c3c2cc1OC [Compound 12, 6-((7,8-dimethoxy-1H-imidazo[4,5-c]quinolin-1-yl)methyl)pyridine-3-sulfonamide] | 1.2 | 550 | 79 | 3.9 |
| COc1ccc2c(ncc3nc(C)n(Cc4ccc(S(N)(=O)=O)cc4)c32)n1 [Compound 48, 4-((7-methoxy-2-methyl-1H-imidazo[4,5-c][1,8]naphthyridin-1-yl)methyl)benzenesulfonamide] | 0.29 | 550 | 80 | 0.44 |
| COc1ccc2c(n1)nc(C)c1nc(C)n(Cc3ccc(S(N)(=O)=O)cn3)c12 [Compound 89, 6-((7-methoxy-2,4-dimethyl-1H-imidazo[4,5-c][1,8]naphthyridin-1-yl)methyl)pyridine-3-sulfonamide] | 0.52 | 410 | 78 | 2.1 |
